Test results as given in patent publication US20250163104A1, “MACROCYCLIC IMMUNOMODULATORS” (priority 2021, published 2025).
Where a SMILES comes first, the peptide text is derived from it. Bridges are numbered along the chain shown (N, C = ends). [ ]: non-standard residue; d: D form. The star is where a group is joined. ξ: configuration not given here. Phe(4-COOH) = N[C@@H](Cc1ccc(C(=O)O)cc1)C(=O)O; Bip = N[C@@H](Cc1ccc(-c2ccccc2)cc1)C(=O)O; Phe(4-NH2) = Nc1ccc(C[C@H](N)C(=O)O)cc1; Phe(3-F) = N[C@@H](Cc1cccc(F)c1)C(=O)O; Phe(3-Me) = Cc1cccc(C[C@H](N)C(=O)O)c1; Val(3-OH) = CC(C)(O)[C@H](N)C(=O)O; Cha = N[C@@H](CC1CCCCC1)C(=O)O; Cit = NC(=O)NCCC[C@H](N)C(=O)O; Ile(3ξ) = CCC(C)[C@H](N)C(=O)O; Thr(3ξ) = CC(O)[C@H](N)C(=O)O; Carboxymethyl = O=C(O)C*; Nle = CCCC[C@H](N)C(=O)O; Orn = NCCC[C@H](N)C(=O)O; Dab = NCC[C@H](N)C(=O)O; Dap = NC[C@H](N)C(=O)O

Biological target: T1, human PD-1 / PD-L1-Ig binding on Jurkat cell line over-expressing human PD-1 (Jurkat-PD-1) (Homo sapiens, UniProt Q15116)
T1 construct: expressed in transfected cells; host or cells: Jurkat
T1 sequence (Q15116 25-288): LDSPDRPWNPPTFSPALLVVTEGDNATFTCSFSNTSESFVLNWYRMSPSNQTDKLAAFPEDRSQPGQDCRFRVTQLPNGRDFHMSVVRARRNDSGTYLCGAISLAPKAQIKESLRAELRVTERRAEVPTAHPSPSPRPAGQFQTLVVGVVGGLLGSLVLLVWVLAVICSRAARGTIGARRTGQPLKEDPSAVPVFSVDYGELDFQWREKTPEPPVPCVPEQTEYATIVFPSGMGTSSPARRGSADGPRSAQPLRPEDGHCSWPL
Experiment: Jurkat-PD-1 Cell Binding High-Content Screening Assay (CBA)
Format: cell-based
Conditions: Jurkat-PD-1 cells, PE-labeled PD-L1-Ig 20 nM final; read-out: Jurkat HPD1_PDL1 IC50
Summary of the method: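 PE-PD-L1-Ig 20 nM final; cells in DMEM/10% FCS; cpd pre-incubation 2 h, 37° C; ligand 1 h; PFA fix + Hoechst 33342; high-content imaging read-out.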

Row | SMILES | IC50
1 | CC(C)C[C@H]1NC(=O)[C@H](CCCN)NC(=O)[C@H](CN)NC(=O)[C@H](Cc2ccc(-c3ccccc3)cc2)NC(=O)[C@H](C(C)C)NC(=O)[C@H](Cc2c[nH]c3ccccc23)NC(=O)[C@H](CC(=O)O)NC(=O)[C@H](Cc2ccc(C(=O)O)cc2)NC(=O)[C@H](Cc2ccc(OCC(=O)O)cc2)NC(=O)CSC[C@@H](C(=O)N[C@@H](C)C(N)=O)NC(=O)[C@H]([C@@H](C)O)NC(=O)[C@H](C(C)C)NC(=O)[C@H](CC2CCCCC2)NC(=O)[C@H](CCN)NC1=O [Compound 1384] | 11 nM
2 | CC[C@H](C)[C@@H]1NC(=O)[C@H](Cc2ccc(-c3ccccc3)cc2)NC(=O)[C@H](C(C)C)NC(=O)[C@H](Cc2cccc(C)c2)NC(=O)[C@H](CC(=O)O)NC(=O)[C@H](Cc2ccc(OCC(=O)O)cc2)NC(=O)[C@H](CN)NC(=O)CSC[C@@H](C(=O)N[C@@H](C)C(N)=O)NC(=O)[C@H]([C@@H](C)O)NC(=O)[C@H](C(C)C)NC(=O)[C@H](CC2CCCCC2)NC(=O)[C@H](CCN)NC(=O)[C@@H](CC(C)C)NC(=O)[C@H](CCCN)NC1=O [Compound 1210] | 11.5 nM
3 | CC(C)C[C@H]1NC(=O)[C@H](CCCN)NC(=O)[C@H](C(C)C)NC(=O)[C@H](Cc2ccc(-c3ccccc3)cc2)NC(=O)[C@H](C(C)C)NC(=O)[C@H](Cc2c[nH]c3ccccc23)NC(=O)[C@H](CC(=O)O)NC(=O)[C@H](Cc2ccc(OCC(=O)O)cc2)NC(=O)[C@H](CN)NC(=O)CSC[C@@H](C(=O)N[C@@H](C)C(N)=O)NC(=O)[C@H]([C@@H](C)O)NC(=O)[C@H](C(C)C)NC(=O)[C@H](Cc2cccc(F)c2)NC(=O)[C@H](CCN)NC1=O [Compound 1672] ({CH2CO}-[Dap]Y(Carboxymethyl)DWV[Bip]V[Orn][dL][Dab][Phe(3-F)]VTCA-NH2; thioether N-14) | 11.2 nM
4 | CC(C)[C@@H]1NC(=O)[C@H](Cc2c[nH]c3ccccc23)NC(=O)[C@H](CC(=O)O)NC(=O)[C@H](Cc2ccc(O)cc2)NC(=O)[C@H](CC(N)=O)NC(=O)CSC[C@@H](C(=O)N[C@@H](C)C(N)=O)NC(=O)[C@H]([C@@H](C)O)NC(=O)[C@H](C(C)C)NC(=O)[C@H](CC2CCCCC2)NC(=O)[C@H](CCN)NC(=O)[C@@H](Cc2ccccc2)NC(=O)[C@H](CCCN)NC(=O)[C@H](CCC(=O)O)NC(=O)[C@H](Cc2ccc(-c3ccccc3)cc2)NC1=O [Compound 1435] ({CH2CO}-NYDWV[Bip]E[Orn][dF][Dab][Cha]VTCA-NH2; thioether N-14) | 53.1 nM
5 | Cc1cccc(C[C@@H]2NC(=O)[C@H](CC(=O)O)NC(=O)[C@H](Cc3ccc(C(=O)O)cc3)NC(=O)[C@H](Cc3ccc(OCC(=O)O)cc3)NC(=O)CSC[C@@H](C(N)=O)NC(=O)[C@H]([C@@H](C)O)NC(=O)[C@H](C(C)C)NC(=O)[C@H](CC(C)C)NC(=O)[C@H](CCN)NC(=O)[C@@H](CC(C)C)NC(=O)[C@H](CCCN)NC(=O)[C@H](C(C)C)NC(=O)[C@H](Cc3ccc(-c4ccccc4)cc3)NC(=O)[C@H](C(C)C)NC2=O)c1 [Compound 1551] ({CH2CO}-Y(Carboxymethyl)[Phe(4-COOH)]D[Phe(3-Me)]V[Bip]V[Orn][dL][Dab]LVTC-NH2; thioether N-14) | 15.6 nM
6 | CC(C)C[C@@H]1NC(=O)[C@H](Cc2c[nH]c3ccccc23)NC(=O)[C@H](CC(=O)O)NC(=O)[C@H](Cc2ccc(O)cc2)NC(=O)[C@H](Cc2ccccc2)NC(=O)CSC[C@@H](C(=O)N[C@@H](C)C(N)=O)NC(=O)[C@H]([C@@H](C)O)NC(=O)[C@H](C(C)C)NC(=O)[C@H](CC(C)C)NC(=O)[C@H](CC(N)=O)NC(=O)[C@@H](C)NC(=O)[C@H](CCN)NC(=O)[C@H](C(C)C)NC(=O)[C@H](Cc2ccc(-c3ccccc3)cc2)NC1=O [Compound 1101] ({CH2CO}-FYDWL[Bip]V[Dab][dA]NLVTCA-NH2; thioether N-14) | 127 nM
7 | CC(C)C[C@H]1NC(=O)[C@H](CCCN)NC(=O)[C@H](C(C)C)NC(=O)[C@H](Cc2ccc(-c3ccccc3)cc2)NC(=O)[C@H](C(C)C)NC(=O)[C@H](Cc2c[nH]c3ccccc23)NC(=O)[C@H](CC(=O)O)NC(=O)[C@H](Cc2ccc(C(=O)O)cc2)NC(=O)[C@H](Cc2ccc(OCC(=O)O)cc2)NC(=O)CSC[C@@H](C(=O)N[C@@H](C)C(N)=O)NC(=O)[C@H](CCCNC(=N)N)NC(=O)[C@H](C(C)C)NC(=O)[C@H](CC2CCCCC2)NC(=O)[C@H](CCN)NC1=O [Compound 1748] ({CH2CO}-Y(Carboxymethyl)[Phe(4-COOH)]DWV[Bip]V[Orn][dL][Dab][Cha]VRCA-NH2; thioether N-14) | 7.6 nM

Results, then the compound that gave them:

Row | IC50 | SMILES
8 | 0.3 nM | CCCC[C@@H]1NC(=O)CSC[C@@H](C(=O)N[C@@H](CCN)C(N)=O)NC(=O)[C@H](CCC(=O)O)NC(=O)[C@H](C(C)(C)O)NC(=O)[C@H](CC2CCCCC2)NC(=O)[C@H](CCN)NC(=O)[C@@H](CC(C)C)NC(=O)[C@H](CCCN)NC(=O)[C@H](Cc2ccc(C(=O)O)cc2)NC(=O)[C@H](Cc2ccc(-c3ccccc3)cc2)NC(=O)[C@H](Cc2ccc(C(=O)O)cc2)NC(=O)[C@H](Cc2cccc(C)c2)NC(=O)[C@H](CC(=O)O)NC(=O)[C@H](Cc2ccc(OCC(=O)O)cc2)NC1=O [Example 2714] ({CH2CO}-[Nle]Y(Carboxymethyl)D[Phe(3-Me)][Phe(4-COOH)][Bip][Phe(4-COOH)][Orn][dL][Dab][Cha][Val(3-OH)]EC[Dab]-NH2; thioether N-14)
9 | 6.8 nM | CC(C)C[C@H]1NC(=O)[C@H](CCCN)NC(=O)[C@H](CCCNC(N)=O)NC(=O)[C@H](Cc2ccc(-c3ccccc3)cc2)NC(=O)[C@H](C(C)C)NC(=O)[C@H](Cc2c[nH]c3ccccc23)NC(=O)[C@H](CC(=O)O)NC(=O)[C@H](Cc2ccc(N)cc2)NC(=O)[C@H](CN)NC(=O)CSC[C@@H](C(=O)N[C@@H](C)C(N)=O)NC(=O)[C@H]([C@@H](C)O)NC(=O)[C@H](C(C)C)NC(=O)[C@H](CC2CCCCC2)NC(=O)[C@H](CCN)NC1=O [Compound 2105] ({CH2CO}-[Dap][Phe(4-NH2)]DWV[Bip][Cit][Orn][dL][Dab][Cha]VTCA-NH2; thioether N-14)
10 | 84.4 nM | CC(C)C[C@@H]1NC(=O)[C@H](CCN)NC(=O)[C@@H](CC(C)C)NC(=O)[C@H](CCCN)NC(=O)[C@H](Cc2ccc(-c3ccccc3)cc2)NC(=O)[C@H](Cc2ccc(-c3ccccc3)cc2)NC(=O)[C@H](C(C)C)NC(=O)[C@H](Cc2c[nH]c3ccccc23)NC(=O)[C@H](CC(=O)O)NC(=O)[C@H](Cc2ccc(OCC(=O)O)cc2)NC(=O)[C@H](Cc2ccc(OCC(=O)O)cc2)NC(=O)CSC[C@@H](C(=O)N[C@@H](C)C(N)=O)NC(=O)[C@H]([C@@H](C)O)NC(=O)[C@H](C(C)C)NC1=O [Compound 1246] ({CH2CO}-Y(Carboxymethyl)Y(Carboxymethyl)DWV[Bip][Bip][Orn][dL][Dab]LVTCA-NH2; thioether N-14)
11 | 162 nM | CCC(C)[C@@H]1NC(=O)[C@H](Cc2c[nH]c3ccccc23)NC(=O)[C@H](CC(=O)O)NC(=O)[C@H](Cc2ccc(OCC(=O)O)cc2)NC(=O)[C@H](C(C)O)NC(=O)CSC[C@@H](C(=O)N[C@@H](CC(N)=O)C(=O)O)NC(=O)[C@H](CO)NC(=O)[C@H](C(C)C)NC(=O)[C@H](CC(C)C)NC(=O)[C@H](CCN)NC(=O)[C@@H](CC(C)C)NC(=O)[C@H](CCCN)NC(=O)[C@H](C(C)CC)NC(=O)[C@H](Cc2ccc(-c3ccccc3)cc2)NC1=O (stereo partly drawn) [Compound 2573] ({CH2CO}-[Thr(3ξ)]Y(Carboxymethyl)DW[Ile(3ξ)][Bip][Ile(3ξ)][Orn][dL][Dab]LVSCN-OH; thioether N-14)
